Assay results taken from patent publication US8592405B2, “Synergistic antimicrobial composition” (Dow Global Technologies LLC, priority 2009, dated 2013).
Values joined by “and” are separate entries in the source; they are usually repeats but may differ in a detail not shown here. Equal entries are not always repeated.

Tests used:
Type in all cases: cell-based
[1] = test system: Calothrix parientina (Cp); assay: Algal efficacy testing, modified ASTM 5589 (12-well, dry paint film); details: three weeks; for % inhibition: at the Total conc; for Total conc, ppm: total biocide in paint taken as minimum inhibitory concentration
Experimental: (§1) Samples of white acrylic latex paint free of biocides were prepared in 50 ml aliquots. Each biocide was post added to give the necessary active ingredient concentration in the paint. The total biocides concentrations tested were 750, 1500, 2500 and 5000 ppm. After biocides addition, each sample was hand mixed for a minimum of 30 sec, followed by a 3 min run on the paint shaker (RED DEVIL). Each of the paint samples as well as a control sample (containing no biocide) were used to prepare films on black plastic-vinyl chloride/acetate copolymer panels (LENETA, Mahwah, N.J.) using a 3 mil bird bar applicator. The panels were thoroughly dried for 5 days avoiding direct exposure to sunlight. Square discs (15 mm^2) were cut out from each panel and were used as the substrate for fungal and algal efficacy tests. This sample size allowed for an agar border when the sample disc was placed into the well of the test plate.
(§2) The appropriate media (BOLD'S 3N for Chlorophytes, BG-11 for Cyanobacteria, and PDA for fungi) were used to support microbial growth. The test plates were maintained at room temp (25° C.-26° C.), in a cycled light-dark environment, for 3 weeks for algae. Plates for fungal challenge tests were maintained at 30C for three weeks. At the end of incubation period the samples were scored for percent area covered by visible microbial growth.
(§3) ASTM 5589 is a standard accelerated test method for determining resistance of various coatings (including paints) to algal defacement. To accommodate for high-throughput screening, this method was scaled down from petri plates to 12-well plates. A single coupon was placed with a pair of sterile forceps at the center of the agar plug (on top) with the painted surface facing upwards. Each well was inoculated with 150 μl of organism (1×10^8 cfu/ml) making sure that the whole surface (paint film as well as the agar surrounding it) was evenly covered. The plates were incubated at room temp (25° C.-26° C.) with cyclic exposure to light (OTT-Lite model #OTL4012P, 40 Watt, 26 KLumen) and dark phases, for a period of three weeks. The total area covered was evaluated at the end of each week according to percent area covered in 5% increments. While rating the plates, notations were made for zones of inhibition.
(§4) The SI is calculated based on F. C. Kull et.

[2] = test system: Chlorella sp. + Chlorella kessleri (Cs + Ck); assay: as above; details: three weeks; for % inhibition: at the Total conc; for Total conc, ppm: total biocide in paint taken as minimum inhibitory concentration
Experimental: as §1, §2, §3, §4

Nostoc commune (Nc) = assay: as above; details: three weeks; for % inhibition: at the Total conc; for Total conc, ppm: total biocide in paint taken as minimum inhibitory concentration
Experimental: as §1, §2, §3, §4

Oscillatoria sp. (Os) = assay: as above; details: three weeks; for % inhibition: at the Total conc; for Total conc, ppm: total biocide in paint taken as minimum inhibitory concentration
Experimental: as §1, §2, §3, §4

[3] = test system: Trentepohlia aurea + Trentepohlia odorata (Ta + To); assay: as above; details: three weeks; for % inhibition: at the Total conc; for Total conc, ppm: total biocide in paint taken as minimum inhibitory concentration
Experimental: as §1, §2, §3, §4

Trichoderma viride (Tv) = assay: Fungal efficacy testing, modified ASTM 5590 (12-well, dry paint film); details: three weeks; for % inhibition: at the Total conc; for Total conc, ppm: total biocide in paint taken as minimum inhibitory concentration, 30 C
Experimental: as §1, §2
ASTM 5590 is a standard accelerated test method for determining resistance of various coatings (including paints) to fungal defacement. To accommodate for high-throughput screening, this method was scaled down from petri plates to 12-well plates. To set up the test, an agar plug was placed at the bottom of each well of the sterile 12-well plate. A single coupon was placed with a pair of sterile forceps at the center of the agar plug (on top) with the painted surface facing upwards. Each well was inoculated with 150 μl of organism (1×10^6 cfu/ml) making sure that the whole surface (paint film as well as the agar surrounding it) was evenly covered. The plates were incubated at 30° C. in presence of moisture, for a period of three weeks. The total percent area covered was evaluated and recorded at the end of each week after the 2nd week and recorded in increments of 5%.
as §4

[4] = test system: Cp + To + Ta (Calotrix parientina, Trentepohlia odorata, Trentepohlia aurea); assay: Algal efficacy testing, modified ASTM 5589 (6-well, mixed inoculum, Example 4); details: four weeks; for Total conc, ppm: Cp + To + Ta mixed inoculum, NE = no end point at the concentration tested; for % inhibition: Cp + To + Ta, at the Total conc
Experimental: (§5) A single or blend of biocides was post added into white acrylic latex paint free of biocides to give a maximum total active ingredient/s concentration tested. This paint was then diluted with a biocide free acrylic latex paint at concentrations range of 75 to 12.5% w/w to give desired concentrations for the testing. Depending on the type of biocide blends tested, the total biocides concentrations varies from 200 to 5000 ppm. After biocides addition or dilution each sample was hand mixed for at least a minute until uniformity is achieved. Each of the paint samples as well as a control sample (containing no biocide) were used to prepare films on black plastic-vinyl chloride/acetate copolymer panels (LENETA, Mahwah, N.J.) using a 3 mil bird bar applicator. The panels were thoroughly dried for at least 2 days avoiding direct exposure to sunlight. Square discs (0.5 inch^2, 13 mm^2) were cut out from each panel and were used as the substrate for fungal and algal efficacy tests. This sample size allowed for an agar border when the sample disc was placed into the well of the test plate. Each sample was tested in duplicate
as §2, with “for four” for “for 3”, “at 30 C” for “at 30C”, “for four” for “for three”, “of the” for “of”
as §3, with “6-well” for “12-well”, “upwards. Algal inoculums were prepared by mixing equal concentrations (1×10^6 cfu/ml) and equal volumes (depending on number of samples to be inoculated) of like growing organisms. In this study, Gloeocapsa sp. and Oscillatoria sp. were a mix of cyanobacteria grown on BG-11 media. Chlorella sp., Chlorella kessleri, and Nostoc commune are unicellular chlorphytes that were mixed and grown on Bold media. Trentepohlia aurea, Trentepohlia odorata, and Calotrix parientina are filamentous algae that were mixed and grown on Bold media.” for “upwards.”, “400” for “150”, “mixture (1×10^6” for “(1×10^8”, “four” for “three”

[5] = test system: Cs + Ck + Nc (Chlorella sp., Chlorella kessleri, Nostoc commune); assay: as above; details: four weeks; for Total conc, ppm: Cs + Ck + Nc mixed inoculum, NE = no end point at the concentration tested; for % inhibition: Cs + Ck + Nc, at the Total conc
Experimental: as §5
as §2, with “for four” for “for 3”, “at 30 C” for “at 30C”, “for four” for “for three”, “of the” for “of”
as §3, with “6-well” for “12-well”, “upwards. Algal inoculums were prepared by mixing equal concentrations (1×10^6 cfu/ml) and equal volumes (depending on number of samples to be inoculated) of like growing organisms. In this study, Gloeocapsa sp. and Oscillatoria sp. were a mix of cyanobacteria grown on BG-11 media. Chlorella sp., Chlorella kessleri, and Nostoc commune are unicellular chlorphytes that were mixed and grown on Bold media. Trentepohlia aurea, Trentepohlia odorata, and Calotrix parientina are filamentous algae that were mixed and grown on Bold media.” for “upwards.”, “400” for “150”, “mixture (1×10^6” for “(1×10^8”, “four” for “three”

[6] = test system: Gs + Os (Gloeocapsa sp. + Oscillatoria sp.); assay: as above; details: four weeks; for Total conc, ppm: Gs + Os mixed inoculum, NE = no end point at the concentration tested; for % inhibition: Gs + Os, at the Total conc
Experimental: as §5
as §2, with “for four” for “for 3”, “at 30 C” for “at 30C”, “for four” for “for three”, “of the” for “of”
as §3, with “6-well” for “12-well”, “upwards. Algal inoculums were prepared by mixing equal concentrations (1×10^6 cfu/ml) and equal volumes (depending on number of samples to be inoculated) of like growing organisms. In this study, Gloeocapsa sp. and Oscillatoria sp. were a mix of cyanobacteria grown on BG-11 media. Chlorella sp., Chlorella kessleri, and Nostoc commune are unicellular chlorphytes that were mixed and grown on Bold media. Trentepohlia aurea, Trentepohlia odorata, and Calotrix parientina are filamentous algae that were mixed and grown on Bold media.” for “upwards.”, “400” for “150”, “mixture (1×10^6” for “(1×10^8”, “four” for “three”

SMILES	% inhibition [1]	Total conc, ppm [1]	% inhibition [2]	Total conc, ppm [2]	% inhibition (Nostoc commune (Nc))	Total conc, ppm (Nostoc commune (Nc))	% inhibition (Oscillatoria sp. (Os))	Total conc, ppm (Oscillatoria sp. (Os))	% inhibition [3]	Total conc, ppm [3]	% inhibition (Trichoderma viride (Tv))	Total conc, ppm (Trichoderma viride (Tv))	Total conc, ppm [4]	% inhibition [4]	Total conc, ppm [5]	% inhibition [5]	Total conc, ppm [6]	% inhibition [6]
CCCCCCCCn1sc(Cl)c(Cl)c1=O [DCOIT, 4,5-dichloro-2-n-octyl-4-isothiazolin-3-one]	75%	1500 ppm	70%	1500 ppm	82.5%	750 ppm	80%	750 ppm	72.5%	1500 ppm	60%	2500 ppm	575 ppm	100%	575 ppm	100%	287.5 ppm	100%
Cc1ccc(S(=O)(=O)C(I)I)cc1 [DIMTS, diiodomethyl-p-tolylsulfone]	85%	1500 ppm	70%	2500 ppm	80%	5000 ppm	80%	1500 ppm	62.5%	2500 ppm	90%	750 ppm	1875 ppm	95%	1250 ppm	100%	1875 ppm	100%
CN(C)C(=O)Nc1cccc(C(F)(F)F)c1 [Fluometuron, 1,1-dimethyl-3-(α,α,α-trifluoro-m-tolyl)urea]	100% and 95% and 90%	750 ppm	100% and 90.00% and 80%	–	100% and 90% and 85%	750 ppm	95% and 62.5% and 82.5%	–	95% and 82.5% and 62.5%	750 ppm and 1500 ppm	–	–	1250 ppm	100%	1250 ppm	100%	312.5 ppm	100%
